PubChem BioAssay AID1963438 (Molecular Pharmacology Branch, DTP, NCI, 2024)

Tested on: NCI-H510 multicellular tumor spheroid growth, % test/control
Assay: Anticancer human tumor NCI-H510 cell line growth inhibition [Asc];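 also: spheroids exposed to agents for 7 days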;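 as to viability, T/C: 100% = DMSO vehicle control wells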
Settings: for IC50: curve of first compound; for viability, T/C: stronger effect = lower value
Outline: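 Complex solid-tumor spheroids incorporating human endothelial and mesenchymal stem cells received single agents or combinations over half-log dilution ranges anchored to clinical Cmax.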

[1] = second compound 0.1 µM, first compound 0.0316 µM
[2] = second compound 0.1 µM, first compound 0.1 µM
[3] = second compound 0.1 µM, first compound 0.316 µM
[4] = second compound 0.1 µM, first compound 1 µM
[5] = second compound 0.316 µM, first compound 0.0316 µM
[6] = second compound 0.316 µM, first compound 0.1 µM
[7] = second compound 0.316 µM, first compound 0.316 µM
[8] = second compound 0.316 µM, first compound 1 µM
[9] = second compound 1 µM, first compound 0.0316 µM
[10] = second compound 1 µM, first compound 0.1 µM
[11] = second compound 1 µM, first compound 0.316 µM
[12] = second compound 1 µM, first compound 1 µM
[13] = second compound 3.16 µM, first compound 0.0316 µM
[14] = second compound 3.16 µM, first compound 0.1 µM
[15] = second compound 3.16 µM, first compound 0.316 µM
[16] = second compound 3.16 µM, first compound 1 µM
[17] = second compound 10 µM, first compound 0.0316 µM
[18] = second compound 10 µM, first compound 0.1 µM
[19] = second compound 10 µM, first compound 0.316 µM
[20] = second compound 10 µM, first compound 1 µM

Q: What does the source list for `C=C(F)C(=O)N1CCN(c2nc(OCC3CCCN3C)nc3c2CCN(c2cccc4cccc(Cl)c24)C3)CC1CC#N` (stereo not given) + Cc1c(S(C)(=O)=O)c(-c2cc(F)cc(N3CCN(c4ccc(NS(=O)(=O)c5ccc(NC(CCN6CCC(C(=O)OCCCP(=O)(O)O)CC6)CSc6ccccc6)c(S(=O)(=O)C(F)(F)F)c5)cc4)CC3)c2)c(-c2ccc(Cl)cc2)n1C(C)C?
A: IC50 (second compound 0.1 µM): 693 nM; IC50 (second compound 0.316 µM): 905 nM; IC50 (second compound 1 µM): 761 nM; IC50 (second compound 3.16 µM): 961 nM; IC50 (second compound 10 µM): 546 nM; viability, T/C [1]: 103%; viability, T/C [2]: 85.7%; viability, T/C [3]: 86%; viability, T/C [4]: 33.7%; viability, T/C (second compound 0.1 µM, first compound 3.16 µM): 0.61%; viability, T/C (second compound 0.1 µM, first compound 10 µM): 0.12%; viability, T/C [5]: 105%; viability, T/C [6]: 95%; viability, T/C [7]: 86.2%; viability, T/C [8]: 48.9%; viability, T/C (second compound 0.316 µM, first compound 3.16 µM): 0.67%; viability, T/C (second compound 0.316 µM, first compound 10 µM): 0.11%; viability, T/C [9]: 113%; viability, T/C [10]: 125%; viability, T/C [11]: 99.8%; viability, T/C [12]: 34.8%; viability, T/C (second compound 1 µM, first compound 3.16 µM): 0.13%; viability, T/C (second compound 1 µM, first compound 10 µM): 0.11%; viability, T/C [13]: 118%; viability, T/C [14]: 110%; viability, T/C [15]: 94.1%; viability, T/C [16]: 52.2%; viability, T/C (second compound 3.16 µM, first compound 3.16 µM): 0.11%; viability, T/C (second compound 3.16 µM, first compound 10 µM): 0.14%; viability, T/C [17]: 86.2%; viability, T/C [18]: 103%; viability, T/C [19]: 80.6%; viability, T/C [20]: 15.6%; viability, T/C (second compound 10 µM, first compound 3.16 µM): 0.8%; viability, T/C (second compound 10 µM, first compound 10 µM): 0.19%

Q: `CCN1C(C(=O)NC23CCC(C(=O)O)(CC2)CC3)C(c2cccc(Cl)c2F)C2(C(=O)Nc3cc(Cl)ccc32)C12CCCCC2` (stereo not given) + Cc1c(S(C)(=O)=O)c(-c2cc(F)cc(N3CCN(c4ccc(NS(=O)(=O)c5ccc(NC(CCN6CCC(C(=O)OCCCP(=O)(O)O)CC6)CSc6ccccc6)c(S(=O)(=O)C(F)(F)F)c5)cc4)CC3)c2)c(-c2ccc(Cl)cc2)n1C(C)C was tested. Which IC50 (second compound 0.1 µM) did it give?
A: The IC50 was > 3000 nM.

Q: What about the IC50 (second compound 0.316 µM) of the same compound?
A: Its IC50 is > 3000 nM.

Q: And the IC50 (second compound 1 µM)?
A: Its IC50 is > 3000 nM.

Q: And the IC50 (second compound 3.16 µM)?
A: Its IC50 is > 3000 nM.

Q: And the IC50 (second compound 10 µM)?
A: The IC50 was > 3000 nM.

Q: And the viability, T/C (second compound 0.1 µM, first compound 0.00949 µM)?
A: The viability, T/C was 101%.

Q: What about the viability, T/C (second compound 0.1 µM, first compound 0.03 µM) of the same compound?
A: The viability, T/C was 97.6%.

Q: What about the viability, T/C (second compound 0.1 µM, first compound 0.0949 µM) of the same compound?
A: Its viability, T/C is 95.5%.

Q: What about the viability, T/C (second compound 0.1 µM, first compound 0.3 µM) of the same compound?
A: The viability, T/C was 96.3%.

Q: What about the viability, T/C (second compound 0.1 µM, first compound 0.949 µM) of the same compound?
A: Its viability, T/C is 80.3%.

Q: What about the viability, T/C (second compound 0.1 µM, first compound 3 µM) of the same compound?
A: The viability, T/C was 104%.

Q: And the viability, T/C (second compound 0.316 µM, first compound 0.00949 µM)?
A: Its viability, T/C is 86.3%.

Q: What about the viability, T/C (second compound 0.316 µM, first compound 0.03 µM) of the same compound?
A: Its viability, T/C is 105%.

Q: What about the viability, T/C (second compound 0.316 µM, first compound 0.0949 µM) of the same compound?
A: Its viability, T/C is 94.8%.

Q: And the viability, T/C (second compound 0.316 µM, first compound 0.3 µM)?
A: The viability, T/C was 94.9%.

Q: And the viability, T/C (second compound 0.316 µM, first compound 0.949 µM)?
A: Its viability, T/C is 88.9%.

Q: What about the viability, T/C (second compound 0.316 µM, first compound 3 µM) of the same compound?
A: Its viability, T/C is 83.6%.

Q: And the viability, T/C (second compound 1 µM, first compound 0.00949 µM)?
A: The viability, T/C was 103%.

Q: And the viability, T/C (second compound 1 µM, first compound 0.03 µM)?
A: The viability, T/C was 82%.

Q: And the viability, T/C (second compound 1 µM, first compound 0.0949 µM)?
A: The viability, T/C was 104%.

Q: And the viability, T/C (second compound 1 µM, first compound 0.3 µM)?
A: Its viability, T/C is 99.5%.

Q: And the viability, T/C (second compound 1 µM, first compound 0.949 µM)?
A: The viability, T/C was 103%.

Q: What about the viability, T/C (second compound 1 µM, first compound 3 µM) of the same compound?
A: Its viability, T/C is 95%.

Q: What about the viability, T/C (second compound 3.16 µM, first compound 0.00949 µM) of the same compound?
A: Its viability, T/C is 88.7%.

Q: What about the viability, T/C (second compound 3.16 µM, first compound 0.03 µM) of the same compound?
A: The viability, T/C was 103%.

Q: And the viability, T/C (second compound 3.16 µM, first compound 0.0949 µM)?
A: The viability, T/C was 96.4%.

Q: And the viability, T/C (second compound 3.16 µM, first compound 0.3 µM)?
A: The viability, T/C was 114%.

Q: What about the viability, T/C (second compound 3.16 µM, first compound 0.949 µM) of the same compound?
A: Its viability, T/C is 68%.

Q: And the viability, T/C (second compound 3.16 µM, first compound 3 µM)?
A: The viability, T/C was 85.1%.

Q: And the viability, T/C (second compound 10 µM, first compound 0.00949 µM)?
A: The viability, T/C was 109%.

Q: What about the viability, T/C (second compound 10 µM, first compound 0.03 µM) of the same compound?
A: Its viability, T/C is 84%.

Q: And the viability, T/C (second compound 10 µM, first compound 0.0949 µM)?
A: The viability, T/C was 87.3%.

Q: And the viability, T/C (second compound 10 µM, first compound 0.3 µM)?
A: Its viability, T/C is 59.1%.

Q: And the viability, T/C (second compound 10 µM, first compound 0.949 µM)?
A: The viability, T/C was 72.8%.

Q: What about the viability, T/C (second compound 10 µM, first compound 3 µM) of the same compound?
A: Its viability, T/C is 56.3%.

Q: Which results are given for `CNC(C)C(=O)NC1CN(S(=O)(=O)c2cccc(S(=O)(=O)N3CCC4CCC(C(=O)NC(c5ccccc5)c5ccccc5)N4C(=O)C(NC(=O)C(C)NC)C3)c2)CCC2CCC(C(=O)NC(c3ccccc3)c3ccccc3)N2C1=O` (stereo not given) + Cc1c(S(C)(=O)=O)c(-c2cc(F)cc(N3CCN(c4ccc(NS(=O)(=O)c5ccc(NC(CCN6CCC(C(=O)OCCCP(=O)(O)O)CC6)CSc6ccccc6)c(S(=O)(=O)C(F)(F)F)c5)cc4)CC3)c2)c(-c2ccc(Cl)cc2)n1C(C)C?
A: IC50 (second compound 0.1 µM): > 1000 nM; IC50 (second compound 0.316 µM): > 1000 nM; IC50 (second compound 1 µM): > 1000 nM; IC50 (second compound 3.16 µM): > 1000 nM; IC50 (second compound 10 µM): > 1000 nM; viability, T/C (second compound 0.1 µM, first compound 0.00316 µM): 114%; viability, T/C (second compound 0.1 µM, first compound 0.01 µM): 122%; viability, T/C [1]: 111%; viability, T/C [2]: 120%; viability, T/C [3]: 99.8%; viability, T/C [4]: 128%; viability, T/C (second compound 0.316 µM, first compound 0.00316 µM): 93.6%; viability, T/C (second compound 0.316 µM, first compound 0.01 µM): 117%; viability, T/C [5]: 107%; viability, T/C [6]: 102%; viability, T/C [7]: 104%; viability, T/C [8]: 112%; viability, T/C (second compound 1 µM, first compound 0.00316 µM): 115%; viability, T/C (second compound 1 µM, first compound 0.01 µM): 97.5%; viability, T/C [9]: 107%; viability, T/C [10]: 103%; viability, T/C [11]: 76.9%; viability, T/C [12]: 91%; viability, T/C (second compound 3.16 µM, first compound 0.00316 µM): 102%; viability, T/C (second compound 3.16 µM, first compound 0.01 µM): 112%; viability, T/C [13]: 109%; viability, T/C [14]: 96.6%; viability, T/C [15]: 85.7%; viability, T/C [16]: 104%; viability, T/C (second compound 10 µM, first compound 0.00316 µM): 110%; viability, T/C (second compound 10 µM, first compound 0.01 µM): 104%; viability, T/C [17]: 70.4%; viability, T/C [18]: 87.7%; viability, T/C [19]: 111%; viability, T/C [20]: 98.6%
